According to patent US9597436B2, “Advanced heart failure treatment material as myocardial/cardiovascular regeneration device” (Osaka University, priority 2012, dated 2017):

How the values were obtained:
[1] = test system: fibroblasts; details: cited from earlier work
[2] = test system: coculture of NHDF and HUVEC; test: Internal regeneration factors under coculture of NHDF and HUVEC; format: cell-based, human
Excerpt: The compound 1 is a low molecular […] having the non-PG skeleton, and TXA2 synthase inhibitory action as well as selective IP agonist action is integrated into the molecule.

[3] = test system: acute hepatopathy induced by carbon tetrachloride; details: cited from earlier work

O=C(O)COc1cccc2c1CCC=C2CCO/N=C(\c1ccccc1)c1cccnc1 [Compound 1, (E)-[5-[2-[1-phenyl-1-(3-pyridyl)methylideneaminoxy]ethyl]-7,8-dihydronaphthalen-1-yloxy]acetic acid]
migration, proliferation, and collagen production of fibroblasts [1]: suppresses | phosphorylation of ERK1/2 ([1]; progressed due to pathology, by activation of cAMP/PKA): suppresses | internal regeneration factors (HGF, VEGF, EGF, IGF-1, SDF-1, G-CSF) [2]: indicates various types of internal regeneration factors | hepatocyte protection (anti-apoptotic and anti-necrosis action) [3]: exhibits hepatocyte protection effects | increases in ALT and AST in blood [3]: suppresses
